“Also recorded” adds a separate entry of the source.
What was measured:
developing tooth buds = conditions: serotonin added to organotypic cultures; reversed with antagonists; cited from earlier work
[1] = test system: oral epithelial keratinocytes of the cell line IMOK; experiment: Immunocytochemistry of marker expression in treated IMOK oral epithelial keratinocytes; format: cell-based, mouse
Experimental: In the studies described below, the ameloblast-like cells originated from oral epithelial keratinocytes. We employed the cell line IMOK, an immortalized oral keratinocyte cell line of mouse origin, which was a gift from Dr. Garrett-Sinha (SUNY-Buffalo; Parikh et al., Arc. Oral Biol. 53:1091-1100, 2008).
To thaw frozen IMOK cells, we removed a cryovial containing 10^6 frozen cells from liquid nitrogen storage, immediately placed it into a 37° C. water bath, and gently swirled the vial. When the cells were thawed, we transferred the vial into a laminar flow hood, and added 10 ml of pre-warmed serum free CnT-02 growth medium (CELLNTEC; FPS 1:1000 added to the medium). We centrifuged the cell suspension (˜1000 rpm for 4 minutes) then checked the vial visually for the presence of a complete pellet. The supernatant was aseptically decanted without disturbing the cell pellet, which we gently resuspended in 7 ml of CnT-02 medium. We transferred the resuspended cells into a T25 flask and incubated it at 37° C. with a humidified atmosphere of 5% CO2 The medium was changed every other day, and when the cells became 90% confluent, we split them 1:5 and plated them in a 12-well plate as follows. After discarding the culture medium from the flask, we washed the cells with PBS then added 2 mL of a pre-warmed dissociation reagent (TrypLE; GIBCO), gently shaking the flask to completely cover the cell layer. We transferred the flask to the incubator (37° C., 5% CO2) for 20 minutes, checking under a microscope every 5 minutes for dissociation of the cells. When ≥90% of the cells detached, we added 8 ml of pre-warmed CnT-02 growth medium (CELLNTEC), dispersing it with a pipette over the cell layer surface several times. The cell suspension was transferred to a 50 ml conical tubed and centrifuged (1000 rpm for 4 minutes). We resuspended the cell pellet in 5 ml of pre-warmed serum free CnT-02 growth medium (CELLNTEC) and split the cells in 1:5 ratios. We diluted the cell suspension plate and pipetted the appropriate volume into new 12-well plates, returning the cells to the incubator (37° C., 5% CO2).
We added the vehicle (4 mM HCl+1 mg/mL BSA) to the control side and TGFβ1 (5 ng/mL) to the experimental side and mixed gently. We changed the medium every other day for 10 days. To fix the cells, we aspirated the medium, washed the cells with PBS then fixed them with 100% methanol for 20 minutes. Following fixation, we washed the fixed cells with PBS (×3) and stored them at 4° C.
Immunocytochemistry General Protocol: (1) wash sample slide in 0.15 M PBS (pH 7.2; 4×5 minutes); (2) incubate in 4% Normal Goat Serum (NGS) for 20 minutes (2 ml of 0.15 M PBS+80 μL NGS); (3) incubate with the primary antibody solution (details below; 90 minutes); (4) wash with […] (3 times×10 minutes); (5) block with 4% NGS in 0.15 M PBS (20 minutes); (6) incubate with the secondary antibody (Biotin-SP-conjugated goat anti-rabbit IgG; 60 minutes); (7) wash with 0.15 M PBS (3 times×10 minutes); (8) prepare and incubate in ABC solution (details below; 60 minutes (5 mL of 0.15 M PBS+ABC solution 600 μL); (9) wash with 0.1 M AI buffer (175 mM sodium acetate and 10 mM imidazole, pH 7.2) for 3 times×10 minutes [14.35 g sodium acetate, 0.68 g imidazole in 1000 mL H2O]; (10) carry out DAB reaction for 5-20 minutes, checking often; and (11) wash for 15 minutes in 0.05 M PBS with 0.04% TritonX-100 to stop the reaction.
The primary antibody solution contains 0.15 M PBS with 0.5% Triton X-100; 4% NGS in [0.15 M PBS with 0.5% TritonX-100; and the primary antibody at a 1:500 dilution (2 mL PBS+0.04% Tx 100+80 μL NGS+4 μL primary antibody). The secondary antibody solution contains 0.15 M PBS with 0.5% Triton X-100 and the secondary antibody at a 1:2500 dilution (Goat anti Rabbit IgG) [2 ml PBS+0.04% Tx 100+0.8 uL GαR]. To prepare the ABC (Avidin Biotin Complex) solution, add 1 drop of A, 1 drop of B, to 500 μL of 0.15 M PBS in an Eppendrof tube. […]

[2] = IMOK cells before and after TGFβ1 treatment
[3] = IMOK cells, TGFβ1 5 ng/ml, 10 days, immunocytochemistry

Compound	effect on tooth development (developing tooth buds)	amelogenin induction at 10 μM serotonin ([1]; 10 μM serotonin for 10 days)	amelogenin expression after serotonin treatment ([1]; IMOK cells pre-treated with TGFβ1, then further treated with serotonin)	Oct4 expression [1, 2]	collagen1 expression [1, 2]	amelogenin expression after TGFβ1 treatment alone ([1]; IMOK cells before and after TGFβ1 treatment, no serotonin)	E-cadherin expression [1, 3]	N-cadherin expression [1, 3]	cell morphology after treatment ([1]; IMOK cells, TGFβ1 treatment versus confluent control)
NCCc1c[nH]c2ccc(O)cc12 [serotonin, reference compound]	accelerated tooth development	induction of amelogenin	induction of amelogenin expression; also recorded: express amelogenin						
TGFβ1: recombinant human transforming growth factor β1 (R&D system) used as dedifferentiation agent				acquire the expression of Oct4	lose the expression of collagen1	do not express amelogenin	lost and reduction in E-cadherin expression and loss of E-cadherin expression	gained; also recorded: increase in N-cadherin expression; also recorded: induced	cells enlarge in size, separate and spread out

Source: US10350147B2, “Enamel products and methods of use” (The Research Foundation for The State University of New York, priority 2014, dated 2019)
